{"source": "ChEMBL document CHEMBL1201862", "about": "“PubChem BioAssay data set” (2004)", "key": {"HEK293 [1]": {"test_system": "HEK293", "test": "cells", "type": "functional, cell-based", "conditions": "Homo sapiens"}, "[2]": {"target": "G-protein coupled receptor 55 (Homo sapiens, UniProt Q9Y2T6)", "test": "GPR55 antagonists, SAR follow-up, counter-screen for GPR35 antagonist project, imaging, image-based (AID 2397)", "type": "functional"}, "[3]": {"test": "C. albicans growth with fluconazole, confirmation, fluorescence, retest (AID 2467)", "type": "functional, cell-based"}, "[4]": {"test": "cytotoxicity toward NIH3T3 fibroblasts, dose response, counter-screen, cell-based, ATP luminescence, mouse fibroblasts (AID 2010);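 further: cells exposed to compound for about 90 hours before reading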", "type": "functional"}, "HEK293 [5]": {"test_system": "HEK293", "test": "cells", "type": "functional, cell-based", "conditions": "Homo sapiens", "remark": "listed apart in the source"}, "[6]": {"test": "microbe, parasite or virus in culture", "type": "functional", "conditions": "Mycobacterium tuberculosis"}, "INS1": {"test_system": "INS1", "test": "beta cell apoptosis inhibitors, cytokine rescue, dose response, luminescence, retest (AID 449756);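 further: cell death triggered by IL-1 beta plus TNF-alpha plus IFN-gamma mixture; protective hits raise ATP signal compared with cytokine alone wells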", "type": "functional, cell-based", "conditions": "Rattus norvegicus"}, "HEK293 [7]": {"test_system": "HEK293", "test": "cells", "type": "functional, cell-based", "conditions": "Homo sapiens", "remark": "listed apart in the source"}, "HEK293 [8]": {"test_system": "HEK293", "test": "NOD2 signaling inhibitors in MDP-stimulated cells, cell-based, uHTS, luminescence (AID 2001)", "type": "functional", "conditions": "Homo sapiens"}, "[9]": {"test": "inhibitors of intracellular T. cruzi replication, confirmation, NIH3T3 host cells, beta-gal luminescence (AID 2044);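 further: luminescent beta-galactosidase reporter signal from transgenic T. cruzi replicating inside host cells; inhibitors lower the luminescence signal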", "type": "functional, cell-based"}, "HEK293 [10]": {"test_system": "HEK293", "test": "NOD1 signaling inhibitors, primary screen, cell-based, luminescence, uHTS (AID 1578)", "type": "functional", "conditions": "Homo sapiens"}, "[11]": {"target": "Nucleotide-binding oligomerization domain-containing protein 2 (Homo sapiens, UniProt Q9HC29)", "test": "NOD2 signaling inhibitors, cell-based, luminescence, uHTS, HEK293 (AID 1566)", "type": "functional"}, "[12]": {"test": "NIH-3T3 fibroblast cytotoxicity, dose response, cytotoxicity control, cell-based, fluorescence, Alamar Blue, secondary assay (AID 2327);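 further: NIH-3T3 mouse fibroblasts cultured with fluconazole at 8 µg/mL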", "type": "functional"}, "[13]": {"target": "Luciferin 4-monooxygenase (Photinus pyralis, UniProt P08659)", "test": "firefly luciferase enzyme inhibitors, dose response, biochemical, luminescence (AID 1891)"}, "[14]": {"test": "inhibitors of Trypanosoma cruzi host-cell infection, confirmation, beta-gal luminescence, NIH3T3 host cells (AID 2630)", "type": "functional, cell-based", "conditions": "Mus musculus"}, "cells": {"test": "cells", "type": "functional"}, "[15]": {"test": "Luminescence Cell-Based Secondary HTS screen to identify cytotoxic compounds of NIH3T3 cells. [Related pubchem assays: 1885, 1968 ]", "type": "functional"}, "[16]": {"test": "Luminescence Cell-Based/Microorganism Confirmation at Dose of Inhibitors of Trypanosoma cruzi Infection. [Related pubchem assays: 1885, 1968 ]", "type": "functional"}, "[17]": {"test": "HepG2 cell cytotoxicity, dose response, cytotoxicity control for non-replicating M. tuberculosis project (AID 489018)", "type": "functional", "conditions": "Mycobacterium tuberculosis"}, "[18]": {"test": "Luminescence Cell-Based Dose Confirmation HTS to Identify Inhibitors of Platelet Dense Granule Release. [Related pubchem assays: 1663 (Primary HTS), 1678 (Summary of Project)]", "type": "functional"}, "[19]": {"target": "Lysine-specific demethylase 4C (Homo sapiens, UniProt Q9H3R0)", "test": "GASC-1 (JMJD2C) histone demethylase inhibitors, dose response, biochemical, DELFIA europium, cherry-picked samples (AID 488835)", "type": "functional"}, "[20]": {"target": "Lysine-specific demethylase 4A (Homo sapiens, UniProt O75164)", "sequence (O75164 whole entry)": "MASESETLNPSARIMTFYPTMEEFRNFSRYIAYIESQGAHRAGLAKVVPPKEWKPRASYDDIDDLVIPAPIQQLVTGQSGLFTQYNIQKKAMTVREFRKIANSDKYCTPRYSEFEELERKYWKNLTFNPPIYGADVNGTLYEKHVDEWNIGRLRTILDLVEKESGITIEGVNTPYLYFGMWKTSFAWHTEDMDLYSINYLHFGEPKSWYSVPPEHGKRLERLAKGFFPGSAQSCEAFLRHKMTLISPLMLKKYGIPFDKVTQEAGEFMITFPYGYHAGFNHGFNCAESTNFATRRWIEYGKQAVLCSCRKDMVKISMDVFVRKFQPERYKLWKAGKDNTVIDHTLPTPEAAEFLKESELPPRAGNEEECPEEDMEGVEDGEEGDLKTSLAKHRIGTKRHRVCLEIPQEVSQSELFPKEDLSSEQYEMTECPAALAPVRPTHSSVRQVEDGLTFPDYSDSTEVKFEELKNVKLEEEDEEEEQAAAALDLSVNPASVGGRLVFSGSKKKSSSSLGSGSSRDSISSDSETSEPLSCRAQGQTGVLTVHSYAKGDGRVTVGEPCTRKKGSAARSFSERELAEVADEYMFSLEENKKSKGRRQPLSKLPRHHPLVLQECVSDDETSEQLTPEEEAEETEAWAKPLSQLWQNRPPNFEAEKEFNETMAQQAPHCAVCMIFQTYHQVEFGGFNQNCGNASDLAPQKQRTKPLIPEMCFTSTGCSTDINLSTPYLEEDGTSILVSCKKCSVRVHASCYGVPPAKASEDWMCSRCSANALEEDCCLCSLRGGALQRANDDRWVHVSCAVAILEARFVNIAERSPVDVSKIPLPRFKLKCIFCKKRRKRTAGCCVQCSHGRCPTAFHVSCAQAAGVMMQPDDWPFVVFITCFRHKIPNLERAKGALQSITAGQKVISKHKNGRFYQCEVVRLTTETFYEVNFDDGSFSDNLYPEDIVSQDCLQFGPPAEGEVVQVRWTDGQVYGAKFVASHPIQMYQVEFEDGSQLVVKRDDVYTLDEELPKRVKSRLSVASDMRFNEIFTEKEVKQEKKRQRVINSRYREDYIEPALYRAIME", "test": "JMJD2A histone demethylase inhibitors, dose response, selectivity assay for GASC-1 inhibitor project, biochemical, DELFIA europium, cherry-picked samples (AID 488840)"}, "[21]": {"target": "DNA dC->dU-editing enzyme APOBEC-3G (Homo sapiens, UniProt Q9HC16)", "sequence (Q9HC16 whole entry)": "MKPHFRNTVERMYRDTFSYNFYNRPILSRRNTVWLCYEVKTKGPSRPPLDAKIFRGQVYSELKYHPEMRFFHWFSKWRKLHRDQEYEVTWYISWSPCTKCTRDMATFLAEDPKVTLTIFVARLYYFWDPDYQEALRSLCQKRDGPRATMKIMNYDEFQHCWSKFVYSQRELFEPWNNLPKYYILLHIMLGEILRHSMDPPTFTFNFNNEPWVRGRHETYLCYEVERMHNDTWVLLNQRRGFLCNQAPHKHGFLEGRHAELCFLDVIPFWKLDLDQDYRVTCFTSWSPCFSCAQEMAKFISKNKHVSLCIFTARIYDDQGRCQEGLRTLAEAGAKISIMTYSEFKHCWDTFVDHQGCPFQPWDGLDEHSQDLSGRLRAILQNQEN", "test": "Dose Response confirmation of small molecule APOBEC3G DNA Deaminase Inhibitors via a fluorescence-based single-stranded DNA deaminase assay. [Related pubchem assays (depositor defined):AID493012, AID493028]", "type": "functional"}, "[22]": {"target": "Glucose-6-phosphate 1-dehydrogenase (Homo sapiens, UniProt P11413)", "test": "human G6PD enzyme inhibitors, dose response, selectivity assay for P. falciparum G6PD inhibitor project, biochemical, fluorescence (AID 504792)", "type": "functional"}, "[23]": {"target": "T1, Mannose-6-phosphate isomerase (Homo sapiens, UniProt P34949)", "T1 sequence (P34949 whole entry)": "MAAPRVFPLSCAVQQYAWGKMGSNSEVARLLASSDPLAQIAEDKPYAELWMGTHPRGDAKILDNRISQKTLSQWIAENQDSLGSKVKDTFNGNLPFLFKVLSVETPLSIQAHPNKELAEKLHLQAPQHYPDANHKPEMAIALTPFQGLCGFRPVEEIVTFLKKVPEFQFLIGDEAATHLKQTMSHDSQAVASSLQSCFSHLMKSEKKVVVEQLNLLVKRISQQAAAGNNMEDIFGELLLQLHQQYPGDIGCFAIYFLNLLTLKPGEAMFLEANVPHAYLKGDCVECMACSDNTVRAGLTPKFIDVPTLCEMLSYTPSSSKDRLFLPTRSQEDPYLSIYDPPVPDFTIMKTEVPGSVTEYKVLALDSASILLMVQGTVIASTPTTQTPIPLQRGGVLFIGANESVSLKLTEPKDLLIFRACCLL", "test": "PMI enzyme inhibitors, confirmation, biochemical, fluorescence intensity (AID 1535)"}, "Phosphomannomutase 2": {"target": "Phosphomannomutase 2 (Homo sapiens, UniProt O15305)", "test": "Counter screen SAR assay for PMM2 inhibitors via a fluorescence intensity assay. [Related pubchem assays (depositor defined):AID1545, AID1574]"}, "[24]": {"target": "Phosphoethanolamine/phosphocholine phosphatase (Homo sapiens, UniProt Q8TCT1)", "sequence (Q8TCT1 whole entry)": "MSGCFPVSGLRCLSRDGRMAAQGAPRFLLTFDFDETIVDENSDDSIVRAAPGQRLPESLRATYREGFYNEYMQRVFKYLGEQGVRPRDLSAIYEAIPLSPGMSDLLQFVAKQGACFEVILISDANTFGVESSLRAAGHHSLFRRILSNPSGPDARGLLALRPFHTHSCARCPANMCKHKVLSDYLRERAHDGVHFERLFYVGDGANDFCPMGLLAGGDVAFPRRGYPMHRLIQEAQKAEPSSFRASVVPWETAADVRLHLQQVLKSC", "test": "SAR assay for compounds that inhibit PHOSPHO1. [Related pubchem assays (depositor defined):AID1545, AID1565, AID1574]"}, "[25]": {"target": "T2, Voltage-gated N-type calcium channel alpha-1B subunit/Amyloid beta A4 precursor protein-binding family A member 1 (Homo sapiens, UniProt Q00975+Q02410)", "T2 sequence (Q00975 whole entry)": "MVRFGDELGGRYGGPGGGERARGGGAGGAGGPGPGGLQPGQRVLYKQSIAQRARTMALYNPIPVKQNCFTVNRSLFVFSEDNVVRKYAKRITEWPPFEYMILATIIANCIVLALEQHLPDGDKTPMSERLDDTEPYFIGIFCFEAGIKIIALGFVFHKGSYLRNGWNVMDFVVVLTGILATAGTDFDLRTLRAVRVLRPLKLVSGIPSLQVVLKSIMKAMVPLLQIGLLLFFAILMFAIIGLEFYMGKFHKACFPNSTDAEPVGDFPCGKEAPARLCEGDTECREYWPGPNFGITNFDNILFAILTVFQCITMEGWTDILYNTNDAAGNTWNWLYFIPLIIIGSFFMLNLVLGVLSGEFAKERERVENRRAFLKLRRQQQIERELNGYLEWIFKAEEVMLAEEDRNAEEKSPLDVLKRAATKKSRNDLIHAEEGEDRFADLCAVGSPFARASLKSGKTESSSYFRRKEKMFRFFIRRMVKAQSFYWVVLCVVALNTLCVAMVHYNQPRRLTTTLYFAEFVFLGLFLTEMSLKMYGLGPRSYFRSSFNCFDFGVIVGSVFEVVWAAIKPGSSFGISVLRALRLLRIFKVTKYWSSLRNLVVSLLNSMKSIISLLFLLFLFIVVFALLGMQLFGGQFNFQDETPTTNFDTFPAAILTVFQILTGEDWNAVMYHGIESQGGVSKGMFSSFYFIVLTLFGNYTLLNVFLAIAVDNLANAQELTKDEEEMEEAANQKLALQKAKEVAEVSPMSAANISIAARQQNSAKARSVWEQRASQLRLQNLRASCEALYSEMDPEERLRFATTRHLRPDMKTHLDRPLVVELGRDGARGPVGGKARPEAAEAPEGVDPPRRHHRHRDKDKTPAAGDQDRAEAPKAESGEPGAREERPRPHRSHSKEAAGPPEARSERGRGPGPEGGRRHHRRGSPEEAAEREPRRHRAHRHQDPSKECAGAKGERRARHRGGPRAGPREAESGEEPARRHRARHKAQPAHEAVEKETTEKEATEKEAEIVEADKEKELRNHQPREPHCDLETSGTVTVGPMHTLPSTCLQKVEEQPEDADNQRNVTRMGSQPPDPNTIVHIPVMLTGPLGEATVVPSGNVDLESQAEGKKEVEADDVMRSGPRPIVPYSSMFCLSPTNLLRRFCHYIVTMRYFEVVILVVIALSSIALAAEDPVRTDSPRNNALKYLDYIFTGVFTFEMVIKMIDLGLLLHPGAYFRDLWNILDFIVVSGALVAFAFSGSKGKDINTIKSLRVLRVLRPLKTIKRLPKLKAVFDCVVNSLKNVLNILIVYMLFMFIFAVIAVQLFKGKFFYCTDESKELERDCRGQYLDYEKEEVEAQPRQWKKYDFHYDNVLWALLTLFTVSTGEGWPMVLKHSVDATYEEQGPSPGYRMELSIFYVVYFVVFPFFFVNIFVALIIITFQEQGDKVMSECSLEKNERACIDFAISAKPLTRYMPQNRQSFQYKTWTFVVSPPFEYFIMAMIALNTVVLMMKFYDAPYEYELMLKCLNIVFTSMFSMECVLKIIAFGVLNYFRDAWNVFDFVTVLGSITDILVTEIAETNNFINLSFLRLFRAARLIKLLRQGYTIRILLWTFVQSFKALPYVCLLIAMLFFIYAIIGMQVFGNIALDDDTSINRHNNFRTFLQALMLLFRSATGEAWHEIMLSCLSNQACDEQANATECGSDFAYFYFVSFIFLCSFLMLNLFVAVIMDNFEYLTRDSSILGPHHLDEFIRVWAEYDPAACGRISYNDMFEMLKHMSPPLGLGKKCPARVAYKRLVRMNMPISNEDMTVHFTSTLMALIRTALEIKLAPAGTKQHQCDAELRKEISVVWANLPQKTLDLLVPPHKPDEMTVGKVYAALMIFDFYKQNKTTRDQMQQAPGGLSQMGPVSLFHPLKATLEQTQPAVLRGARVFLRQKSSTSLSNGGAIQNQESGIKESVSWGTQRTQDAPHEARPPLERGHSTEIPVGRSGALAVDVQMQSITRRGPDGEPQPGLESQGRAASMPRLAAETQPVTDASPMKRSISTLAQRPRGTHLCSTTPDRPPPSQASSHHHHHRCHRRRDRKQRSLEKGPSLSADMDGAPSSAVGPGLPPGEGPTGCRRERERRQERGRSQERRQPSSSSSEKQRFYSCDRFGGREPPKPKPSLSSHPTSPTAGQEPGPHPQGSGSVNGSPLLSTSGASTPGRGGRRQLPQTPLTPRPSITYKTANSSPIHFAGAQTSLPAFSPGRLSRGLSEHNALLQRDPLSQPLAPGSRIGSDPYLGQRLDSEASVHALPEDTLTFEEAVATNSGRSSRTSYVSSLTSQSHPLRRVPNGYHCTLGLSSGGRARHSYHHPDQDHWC", "T2 sequence (Q02410 whole entry)": "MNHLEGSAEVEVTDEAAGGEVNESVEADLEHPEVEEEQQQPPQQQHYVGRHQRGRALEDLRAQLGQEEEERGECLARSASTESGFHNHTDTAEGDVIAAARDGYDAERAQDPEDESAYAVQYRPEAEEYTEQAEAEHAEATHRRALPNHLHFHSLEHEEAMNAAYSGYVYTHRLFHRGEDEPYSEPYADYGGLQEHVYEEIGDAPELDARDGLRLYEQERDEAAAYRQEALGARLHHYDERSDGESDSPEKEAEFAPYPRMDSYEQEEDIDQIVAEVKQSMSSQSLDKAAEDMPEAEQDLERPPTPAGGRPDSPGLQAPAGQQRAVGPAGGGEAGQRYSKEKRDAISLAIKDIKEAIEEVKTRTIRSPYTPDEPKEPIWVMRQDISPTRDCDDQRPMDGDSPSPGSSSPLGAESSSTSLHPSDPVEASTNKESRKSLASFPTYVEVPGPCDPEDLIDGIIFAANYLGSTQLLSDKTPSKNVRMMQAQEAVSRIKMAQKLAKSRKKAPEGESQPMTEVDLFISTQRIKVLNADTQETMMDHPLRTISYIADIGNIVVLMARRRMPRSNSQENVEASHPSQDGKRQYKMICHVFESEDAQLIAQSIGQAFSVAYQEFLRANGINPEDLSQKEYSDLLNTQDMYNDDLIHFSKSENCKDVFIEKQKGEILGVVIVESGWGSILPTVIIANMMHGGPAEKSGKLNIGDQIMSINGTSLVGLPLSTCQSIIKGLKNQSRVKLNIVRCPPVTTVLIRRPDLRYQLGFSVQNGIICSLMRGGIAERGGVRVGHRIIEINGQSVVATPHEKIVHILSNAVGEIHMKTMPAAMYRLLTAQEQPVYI", "test": "disruptors of Mint-PDZ/N-type channel peptide interaction – biochemical, HTRF, SAR follow-up (AID 2489)", "type": "functional"}, "[26]": {"target": "T2, Voltage-gated N-type calcium channel alpha-1B subunit/Amyloid beta A4 precursor protein-binding family A member 1", "test": "disruptors of Mint-PDZ/N-type channel peptide interaction – biochemical, HTRF, set 2, SAR follow-up (AID 434980)", "type": "functional"}, "SUMO E1/E2": {"target": "SUMO E1/E2 (Homo sapiens, UniProt P63279+Q9UBE0+Q9UBT2)", "test": "SAR analysis of SUMOylation using HTRF in an in-Vitro dose response assay. [Related pubchem assays (depositor defined):AID2006, AID2011, AID2018, AID2069, AID2658]", "type": "functional"}, "Tumor necrosis factor": {"target": "Tumor necrosis factor (Homo sapiens, UniProt P01375)", "test": "TNFa-triggered NF-kB activation inhibitors, SAR follow-up, cell-based, revised (AID 2337)", "type": "functional"}, "HEK293 [27]": {"test_system": "HEK293", "test": "cells", "conditions": "Homo sapiens"}, "[28]": {"target": "T3, Nucleotide-binding oligomerization domain-containing protein 1 (Homo sapiens, UniProt Q9Y239)", "T3 sequence (Q9Y239 whole entry)": "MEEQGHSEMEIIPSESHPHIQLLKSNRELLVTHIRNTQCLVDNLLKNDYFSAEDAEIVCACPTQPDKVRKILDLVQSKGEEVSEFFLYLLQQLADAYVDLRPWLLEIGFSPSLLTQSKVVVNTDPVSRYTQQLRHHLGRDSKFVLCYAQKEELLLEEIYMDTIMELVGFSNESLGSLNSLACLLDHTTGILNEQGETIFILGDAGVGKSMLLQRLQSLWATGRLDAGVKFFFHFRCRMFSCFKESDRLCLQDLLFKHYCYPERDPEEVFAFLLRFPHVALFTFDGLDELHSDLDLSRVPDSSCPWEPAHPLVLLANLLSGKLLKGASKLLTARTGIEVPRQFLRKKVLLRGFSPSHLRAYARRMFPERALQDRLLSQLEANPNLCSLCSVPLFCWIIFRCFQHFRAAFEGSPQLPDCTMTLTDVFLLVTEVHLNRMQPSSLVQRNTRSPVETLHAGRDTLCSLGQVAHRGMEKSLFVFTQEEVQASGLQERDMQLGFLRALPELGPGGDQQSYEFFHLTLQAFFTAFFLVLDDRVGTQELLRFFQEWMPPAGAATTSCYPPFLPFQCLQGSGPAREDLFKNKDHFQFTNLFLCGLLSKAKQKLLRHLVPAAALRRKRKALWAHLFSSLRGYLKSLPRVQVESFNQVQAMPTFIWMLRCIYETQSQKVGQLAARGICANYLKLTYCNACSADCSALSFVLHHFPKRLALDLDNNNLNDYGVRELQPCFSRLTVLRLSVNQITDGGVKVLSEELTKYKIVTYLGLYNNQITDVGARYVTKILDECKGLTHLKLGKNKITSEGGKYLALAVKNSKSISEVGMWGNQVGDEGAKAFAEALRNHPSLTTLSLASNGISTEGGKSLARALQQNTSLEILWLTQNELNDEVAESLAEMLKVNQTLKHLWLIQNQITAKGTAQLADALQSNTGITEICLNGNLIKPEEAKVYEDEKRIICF", "test": "NOD1 signaling inhibitors, SAR follow-up, revised (AID 2333)", "type": "functional"}}, "note": "The source made the active and inactive calls.", "data": [{"smiles": "Cc1ccc2c(c1)c(/C=C/c1cc[n+](C)cc1)c(C)n2C", "values": [{"measurement": "IC50", "setting": "HEK293 [1]", "value": "> 20 µM (inactive)"}, {"measurement": "IC50", "setting": "[2]", "value": "0.462 µM (active)"}, {"measurement": "EC50", "setting": "[3]", "value": "0.59 µM (active)"}, {"measurement": "EC50", "setting": "[4]", "value": "> 60 µM (not active)"}, {"measurement": "IC50", "setting": "HEK293 [5]", "value": "18 µM (active)"}, {"measurement": "CC50", "setting": "[6]", "value": "> 40 µM (active)"}, {"measurement": "AC50", "setting": "INS1", "value": "3.46 µM (active)"}, {"measurement": "IC50", "setting": "HEK293 [7]", "value": "> 20 µM (inactive)"}, {"measurement": "IC50", "setting": "HEK293 [8]", "value": "14.7 µM (inactive)"}, {"measurement": "EC50", "setting": "[9]", "value": "0.294 µM (active)"}, {"measurement": "EC50", "setting": "HEK293 [10]", "value": "17.3 µM (active)"}, {"measurement": "EC50", "setting": "[11]", "value": "4.42 µM (active)"}, {"measurement": "EC50", "setting": "[12]", "value": "> 160 µM (inactive)"}]}, {"smiles": "OC(COc1ccc2ccccc2c1Br)Cn1ccnc1", "note": "(stereo not given)", "values": [{"measurement": "EC50", "setting": "[13]", "value": "> 112 µM (not active)"}, {"measurement": "EC50", "setting": "[14]", "value": "2.07 µM (active)"}, {"measurement": "EC50", "setting": "[4]", "value": "> 60 µM (not active)"}, {"measurement": "IC50", "setting": "cells", "value": "14.3 µM (active)"}, {"measurement": "EC50", "setting": "[15]", "value": "> 195 µM (not active)"}, {"measurement": "EC50", "setting": "[16]", "value": "2.07 µM (active)"}, {"measurement": "EC50", "setting": "[9]", "value": "0.501 µM (active)"}, {"measurement": "CC50", "setting": "[17]", "value": "> 20 µM (active)"}, {"measurement": "EC50", "setting": "[18]", "value": "> 112 µM (not active)"}]}, {"smiles": "O=C1NC(=O)C(=NNC(=O)C2COc3ccccc3O2)C(=O)N1", "note": "(stereo not given)", "values": [{"measurement": "AC50", "setting": "[19]", "value": "2.66 µM (active)"}, {"measurement": "AC50", "setting": "[20]", "value": "11.7 µM (active)"}]}, {"smiles": "O=c1c2ccccc2sn1-c1ccc(S(=O)(=O)N2CCCCC2)cc1", "values": [{"measurement": "IC50", "setting": "[21]", "value": "19.4 µM (active)"}, {"measurement": "IC50", "setting": "[22]", "value": "> 80 µM (inactive)"}, {"measurement": "IC50", "setting": "[23]", "value": "> 50 µM (inactive)"}, {"measurement": "IC50", "setting": "Phosphomannomutase 2", "value": "> 100 µM (inactive)"}, {"measurement": "IC50", "setting": "[24]", "value": "38.9 µM (inactive)"}]}, {"smiles": "COc1ccc(CNC(=O)C(C)OC(=O)c2cc(-c3ccco3)nc3ccccc23)cc1", "note": "(stereo not given)", "values": [{"measurement": "IC50", "setting": "[25]", "value": "17.5 µM (active)"}, {"measurement": "IC50", "setting": "[26]", "value": "8.2 µM (active)"}, {"measurement": "IC50", "setting": "SUMO E1/E2", "value": "7.68 µM (active)"}]}, {"smiles": "CCC(=O)N1c2ccc(S(=O)(=O)N3CCN(c4ccc(Cl)cc4)CC3)cc2CC1C", "note": "(stereo not given)", "values": [{"measurement": "IC50", "setting": "Tumor necrosis factor", "value": "0.584 µM (active)"}, {"measurement": "IC50", "setting": "HEK293 [27]", "value": "6.8 µM (active)"}, {"measurement": "IC50", "setting": "[28]", "value": "1.01 µM (active)"}]}]}
